Test results taken from ChEMBL document CHEMBL4800728, “Data for DCP probe JNJ-54119936” (2021).
Activity calls are given as the source filed them. The rule behind the calls is not given here.

Tests used:
[1] = target: Melatonin receptor type 1A (Homo sapiens) (UniProt P48039); assay: MT1 (ML1A) (h) CEREP screen; details: Compound concentration 10.0 uM
[2] = target: T1, Glucocorticoid receptor (Homo sapiens) (UniProt P04150); assay: GR Indigo Bioscience nuclear receptor screen
T1 sequence (whole entry): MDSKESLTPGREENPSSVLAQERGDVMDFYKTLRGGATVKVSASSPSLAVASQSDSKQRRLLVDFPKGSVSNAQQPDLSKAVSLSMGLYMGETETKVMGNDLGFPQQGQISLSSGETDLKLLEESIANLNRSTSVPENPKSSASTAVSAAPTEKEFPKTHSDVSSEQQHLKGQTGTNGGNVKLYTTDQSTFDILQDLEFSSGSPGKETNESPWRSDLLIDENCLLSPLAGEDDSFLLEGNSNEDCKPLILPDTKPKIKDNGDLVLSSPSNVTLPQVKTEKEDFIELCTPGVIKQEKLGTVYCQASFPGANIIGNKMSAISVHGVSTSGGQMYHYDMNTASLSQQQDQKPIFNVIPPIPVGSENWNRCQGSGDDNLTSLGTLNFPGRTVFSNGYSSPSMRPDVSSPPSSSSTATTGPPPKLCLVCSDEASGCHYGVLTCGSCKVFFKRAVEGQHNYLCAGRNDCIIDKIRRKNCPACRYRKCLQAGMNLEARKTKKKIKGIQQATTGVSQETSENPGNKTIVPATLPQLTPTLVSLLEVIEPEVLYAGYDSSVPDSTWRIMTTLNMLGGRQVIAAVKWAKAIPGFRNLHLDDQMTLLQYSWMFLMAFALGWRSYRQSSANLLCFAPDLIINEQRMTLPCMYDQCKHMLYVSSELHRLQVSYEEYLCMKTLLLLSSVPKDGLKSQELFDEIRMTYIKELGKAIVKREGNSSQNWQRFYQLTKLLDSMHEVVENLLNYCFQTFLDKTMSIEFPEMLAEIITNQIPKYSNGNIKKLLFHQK

[3] = target: 5-hydroxytryptamine receptor 1B (Homo sapiens) (UniProt P28222); details: Compound concentration 10.0 uM
[4] = target: Alpha-2C adrenergic receptor (Homo sapiens) (UniProt P18825); details: Compound concentration 10.0 uM
[5] = target: Serine/threonine-protein kinase PLK3 (Homo sapiens) (UniProt Q9H4B4); assay: Plk3 Invitrogen kinase panel; details: Compound concentration 10.0 uM
[6] = target: Histamine H3 receptor (Homo sapiens) (UniProt Q9Y5N1); details: Compound concentration 10.0 uM
[7] = target: 5-hydroxytryptamine receptor 5A (Homo sapiens) (UniProt P47898); assay: 5-HT5A (h) CEREP screen
[8] = target: Type-1 angiotensin II receptor (Homo sapiens) (UniProt P30556); assay: AT1 (h) CEREP screen; details: Compound concentration 10.0 uM
[9] = target: Fibroblast growth factor receptor 1 (Homo sapiens) (UniProt P11362); assay: FGFR1 Invitrogen kinase panel; details: Compound concentration 10.0 uM
[10] = target: Alpha-2A adrenergic receptor (Homo sapiens) (UniProt P08913); details: Compound concentration 10.0 uM
[11] = target: Sigma non-opioid intracellular receptor 1 (Homo sapiens, UniProt Q99720); details: Compound concentration 10.0 uM
[12] = target: T2, Peroxisome proliferator-activated receptor gamma (Homo sapiens) (UniProt P37231); assay: PPARgamma Indigo Bioscience nuclear receptor screen
T2 sequence (whole entry): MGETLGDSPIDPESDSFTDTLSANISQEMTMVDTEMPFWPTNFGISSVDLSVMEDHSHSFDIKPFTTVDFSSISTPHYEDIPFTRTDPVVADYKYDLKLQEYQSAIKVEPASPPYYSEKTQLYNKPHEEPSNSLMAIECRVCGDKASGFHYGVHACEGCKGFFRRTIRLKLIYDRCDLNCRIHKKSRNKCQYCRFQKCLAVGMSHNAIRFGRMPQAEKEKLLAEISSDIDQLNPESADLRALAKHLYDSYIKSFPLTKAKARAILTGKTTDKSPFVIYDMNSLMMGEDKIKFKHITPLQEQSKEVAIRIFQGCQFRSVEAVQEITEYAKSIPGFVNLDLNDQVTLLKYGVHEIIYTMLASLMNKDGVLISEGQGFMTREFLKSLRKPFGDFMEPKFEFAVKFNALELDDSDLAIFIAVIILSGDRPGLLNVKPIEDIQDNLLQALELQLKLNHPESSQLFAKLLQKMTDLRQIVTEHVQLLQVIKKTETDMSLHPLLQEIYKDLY

[13] = target: Sodium-dependent serotonin transporter (Homo sapiens) (UniProt P31645); assay: 5-HT transporter (h) CEREP screen; details: Compound concentration 10.0 uM
[14] = target: Nuclear receptor ROR-alpha (Homo sapiens) (UniProt P35398); assay: ThermoFluor Binding Assay (RORA)
[15] = target: Mitogen-activated protein kinase 3 (Homo sapiens) (UniProt P27361); assay: ERK1 Invitrogen kinase panel; details: Compound concentration 10.0 uM
[16] = target: Oxysterols receptor LXR-alpha (Homo sapiens) (UniProt Q13133); assay: LXRalpha Indigo Bioscience nuclear receptor screen; details: Compound concentration 0.3 uM
[17] = target: Histamine H1 receptor (Homo sapiens) (UniProt P35367); assay: H1 (h) CEREP screen; details: Compound concentration 1.0 uM
[18] = target: Kappa-type opioid receptor (Homo sapiens) (UniProt P41145); details: Compound concentration 10.0 uM
[19] = target: Serotonin 3 (5-HT3) receptor (Homo sapiens) (UniProt P46098+A5X5Y0+O95264+Q70Z44+Q8WXA8); assay: 5-HT3 (h) CEREP screen; assay type: protein-complex assay; details: Compound concentration 10.0 uM
[20] = target: Thyroid hormone receptor alpha (Homo sapiens) (UniProt P10827); assay: TRalpha Indigo Bioscience nuclear receptor screen; details: Compound concentration 0.3 uM
[21] = target: 5-hydroxytryptamine receptor 2B (Homo sapiens) (UniProt P41595); details: Compound concentration 10.0 uM
[22] = target: Estrogen receptor beta (Homo sapiens) (UniProt Q92731); assay: ERbeta In-house nuclear receptor screen; details: Compound concentration 3.0 uM
[23] = target: Nuclear receptor ROR-gamma (Homo sapiens, UniProt P51449); assay: One-hybrid LBD; parameters: compound concentration 6 uM
[24] = target: Activin receptor type-1B (Homo sapiens) (UniProt P36896); assay: Alk4 Invitrogen kinase panel; details: Compound concentration 10.0 uM
[25] = target: GABA-A receptor; anion channel (Homo sapiens) (UniProt P14867+P47870+P18507+P28472+P48169+Q99928+Q9UN88+P34903+O00591+O14764+Q8N1C3+P18505+P78334+P47869+P31644+Q16445); assay: Cl- channel CEREP screen; assay type: protein-complex assay
[26] = target: 5-hydroxytryptamine receptor 3A (Homo sapiens) (UniProt P46098); details: Compound concentration 10.0 uM
5-hydroxytryptamine receptor 3A (Homo sapiens), sequence (P46098 whole entry): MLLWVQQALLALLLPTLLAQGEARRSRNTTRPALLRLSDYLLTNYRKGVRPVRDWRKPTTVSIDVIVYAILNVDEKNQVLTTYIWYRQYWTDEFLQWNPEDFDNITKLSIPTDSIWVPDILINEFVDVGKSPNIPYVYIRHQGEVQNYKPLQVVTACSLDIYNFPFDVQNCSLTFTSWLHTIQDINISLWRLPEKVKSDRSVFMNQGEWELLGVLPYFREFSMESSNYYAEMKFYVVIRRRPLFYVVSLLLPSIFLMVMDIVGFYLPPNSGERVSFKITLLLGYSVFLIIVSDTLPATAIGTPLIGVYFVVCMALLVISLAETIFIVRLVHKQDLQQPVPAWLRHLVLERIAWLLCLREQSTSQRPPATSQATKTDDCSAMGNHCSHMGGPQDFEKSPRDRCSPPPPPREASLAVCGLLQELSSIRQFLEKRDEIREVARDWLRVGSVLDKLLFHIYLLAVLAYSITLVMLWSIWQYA

5-hydroxytryptamine receptor 5A (Homo sapiens), sequence (P47898 whole entry): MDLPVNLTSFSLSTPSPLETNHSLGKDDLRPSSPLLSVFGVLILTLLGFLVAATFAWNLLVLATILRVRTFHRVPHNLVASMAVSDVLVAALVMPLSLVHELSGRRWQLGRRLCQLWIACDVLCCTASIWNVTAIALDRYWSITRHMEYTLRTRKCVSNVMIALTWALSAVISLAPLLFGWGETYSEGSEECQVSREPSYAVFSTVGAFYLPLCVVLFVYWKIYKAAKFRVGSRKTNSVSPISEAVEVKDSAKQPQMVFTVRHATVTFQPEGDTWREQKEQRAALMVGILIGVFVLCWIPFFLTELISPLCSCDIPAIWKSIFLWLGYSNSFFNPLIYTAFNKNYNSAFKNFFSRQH
Melatonin receptor type 1A (Homo sapiens), sequence (P48039 whole entry): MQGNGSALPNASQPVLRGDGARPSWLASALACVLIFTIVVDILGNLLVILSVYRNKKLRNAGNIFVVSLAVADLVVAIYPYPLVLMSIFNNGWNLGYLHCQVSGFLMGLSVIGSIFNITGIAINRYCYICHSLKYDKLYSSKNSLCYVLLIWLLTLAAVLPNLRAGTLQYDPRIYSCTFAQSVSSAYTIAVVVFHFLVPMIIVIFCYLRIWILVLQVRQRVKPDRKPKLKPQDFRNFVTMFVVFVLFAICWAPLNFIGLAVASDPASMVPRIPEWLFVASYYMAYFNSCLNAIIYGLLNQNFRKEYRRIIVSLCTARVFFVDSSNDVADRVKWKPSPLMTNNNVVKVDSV
Serine/threonine-protein kinase PLK3 (Homo sapiens), sequence (Q9H4B4 whole entry, looked up): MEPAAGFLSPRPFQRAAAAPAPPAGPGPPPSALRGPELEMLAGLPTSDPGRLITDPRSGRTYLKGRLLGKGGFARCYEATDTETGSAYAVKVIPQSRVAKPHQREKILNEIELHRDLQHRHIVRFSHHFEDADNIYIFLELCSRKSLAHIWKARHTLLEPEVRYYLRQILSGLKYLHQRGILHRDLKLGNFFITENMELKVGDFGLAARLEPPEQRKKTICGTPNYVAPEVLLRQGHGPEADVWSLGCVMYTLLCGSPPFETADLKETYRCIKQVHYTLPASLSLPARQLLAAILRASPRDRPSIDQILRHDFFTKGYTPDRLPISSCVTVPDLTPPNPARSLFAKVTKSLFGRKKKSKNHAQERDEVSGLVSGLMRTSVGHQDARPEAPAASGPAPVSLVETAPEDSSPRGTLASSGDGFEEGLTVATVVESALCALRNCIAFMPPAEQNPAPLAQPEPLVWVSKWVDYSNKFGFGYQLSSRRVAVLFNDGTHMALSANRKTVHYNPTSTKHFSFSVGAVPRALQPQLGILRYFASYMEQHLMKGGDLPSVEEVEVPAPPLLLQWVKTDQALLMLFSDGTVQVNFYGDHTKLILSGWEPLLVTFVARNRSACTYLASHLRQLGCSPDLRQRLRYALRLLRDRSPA
Thyroid hormone receptor alpha (Homo sapiens), sequence (P10827 whole entry): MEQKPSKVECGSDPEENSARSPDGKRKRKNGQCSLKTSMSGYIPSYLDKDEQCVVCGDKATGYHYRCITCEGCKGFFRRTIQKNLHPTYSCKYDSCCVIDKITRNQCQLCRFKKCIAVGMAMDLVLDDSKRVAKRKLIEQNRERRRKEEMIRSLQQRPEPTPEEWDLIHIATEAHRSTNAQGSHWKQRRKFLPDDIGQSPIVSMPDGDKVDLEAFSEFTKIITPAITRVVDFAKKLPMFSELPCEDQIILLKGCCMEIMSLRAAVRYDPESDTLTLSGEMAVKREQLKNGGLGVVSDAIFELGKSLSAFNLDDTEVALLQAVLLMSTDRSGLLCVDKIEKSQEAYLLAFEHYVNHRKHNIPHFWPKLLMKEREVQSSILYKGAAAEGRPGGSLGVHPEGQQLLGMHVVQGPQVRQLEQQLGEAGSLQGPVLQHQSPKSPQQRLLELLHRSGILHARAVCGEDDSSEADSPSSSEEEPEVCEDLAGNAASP
Alpha-2C adrenergic receptor (Homo sapiens), sequence (P18825 whole entry): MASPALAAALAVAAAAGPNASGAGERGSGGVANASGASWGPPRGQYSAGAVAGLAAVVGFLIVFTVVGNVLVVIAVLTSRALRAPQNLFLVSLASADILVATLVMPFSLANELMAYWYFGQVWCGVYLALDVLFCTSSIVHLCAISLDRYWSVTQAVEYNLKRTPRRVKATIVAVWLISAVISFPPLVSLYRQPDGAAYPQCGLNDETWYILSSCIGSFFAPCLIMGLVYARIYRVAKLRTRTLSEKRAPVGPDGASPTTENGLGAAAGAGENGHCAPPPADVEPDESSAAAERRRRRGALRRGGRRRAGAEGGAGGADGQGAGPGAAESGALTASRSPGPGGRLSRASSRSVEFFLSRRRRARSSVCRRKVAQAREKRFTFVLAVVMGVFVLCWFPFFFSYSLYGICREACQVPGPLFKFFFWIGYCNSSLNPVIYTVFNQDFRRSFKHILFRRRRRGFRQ
5-hydroxytryptamine receptor 1B (Homo sapiens), sequence (P28222 whole entry): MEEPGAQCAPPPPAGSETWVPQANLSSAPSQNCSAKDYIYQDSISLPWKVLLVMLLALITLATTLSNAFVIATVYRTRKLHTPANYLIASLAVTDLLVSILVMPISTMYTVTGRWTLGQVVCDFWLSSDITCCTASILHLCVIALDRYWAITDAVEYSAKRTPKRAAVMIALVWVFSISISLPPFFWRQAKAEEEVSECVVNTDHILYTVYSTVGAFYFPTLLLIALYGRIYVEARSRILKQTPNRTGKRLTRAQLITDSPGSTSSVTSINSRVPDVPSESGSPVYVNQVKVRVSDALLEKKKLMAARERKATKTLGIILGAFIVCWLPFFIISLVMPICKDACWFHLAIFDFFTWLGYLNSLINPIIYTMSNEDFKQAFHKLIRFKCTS
Mitogen-activated protein kinase 3 (Homo sapiens), sequence (P27361 whole entry): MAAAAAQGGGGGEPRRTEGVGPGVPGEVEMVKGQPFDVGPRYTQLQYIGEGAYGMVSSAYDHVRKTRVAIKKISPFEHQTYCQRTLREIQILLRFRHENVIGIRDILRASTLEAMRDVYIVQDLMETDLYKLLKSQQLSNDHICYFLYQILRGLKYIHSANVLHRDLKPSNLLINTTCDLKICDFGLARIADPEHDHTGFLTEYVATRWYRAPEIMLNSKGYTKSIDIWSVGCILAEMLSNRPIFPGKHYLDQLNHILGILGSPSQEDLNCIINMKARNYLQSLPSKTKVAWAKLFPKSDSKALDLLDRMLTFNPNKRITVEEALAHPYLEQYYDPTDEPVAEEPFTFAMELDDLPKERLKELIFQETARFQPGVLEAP
Kappa-type opioid receptor (Homo sapiens), sequence (P41145 whole entry): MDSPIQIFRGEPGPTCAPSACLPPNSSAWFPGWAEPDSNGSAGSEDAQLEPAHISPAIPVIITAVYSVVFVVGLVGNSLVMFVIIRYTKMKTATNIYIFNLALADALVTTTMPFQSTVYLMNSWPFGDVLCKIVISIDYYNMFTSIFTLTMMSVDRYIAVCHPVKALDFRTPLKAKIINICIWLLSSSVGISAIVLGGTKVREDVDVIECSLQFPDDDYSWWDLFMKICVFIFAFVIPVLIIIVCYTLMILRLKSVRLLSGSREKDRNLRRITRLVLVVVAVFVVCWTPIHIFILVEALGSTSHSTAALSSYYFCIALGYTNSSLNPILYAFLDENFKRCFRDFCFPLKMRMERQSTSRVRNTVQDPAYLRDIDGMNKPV
Histamine H3 receptor (Homo sapiens), sequence (Q9Y5N1 whole entry): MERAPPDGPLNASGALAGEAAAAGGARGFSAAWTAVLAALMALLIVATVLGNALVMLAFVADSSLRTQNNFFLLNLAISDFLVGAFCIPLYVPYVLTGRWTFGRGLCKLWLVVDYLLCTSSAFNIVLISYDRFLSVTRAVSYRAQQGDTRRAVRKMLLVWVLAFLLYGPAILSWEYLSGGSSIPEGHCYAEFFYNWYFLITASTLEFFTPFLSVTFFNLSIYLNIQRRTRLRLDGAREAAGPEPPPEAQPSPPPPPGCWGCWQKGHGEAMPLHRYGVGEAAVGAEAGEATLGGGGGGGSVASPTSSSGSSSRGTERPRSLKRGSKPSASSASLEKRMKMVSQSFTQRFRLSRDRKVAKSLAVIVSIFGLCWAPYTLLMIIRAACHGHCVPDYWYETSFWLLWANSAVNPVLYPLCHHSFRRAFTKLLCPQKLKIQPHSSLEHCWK
Activin receptor type-1B (Homo sapiens), sequence (P36896 whole entry): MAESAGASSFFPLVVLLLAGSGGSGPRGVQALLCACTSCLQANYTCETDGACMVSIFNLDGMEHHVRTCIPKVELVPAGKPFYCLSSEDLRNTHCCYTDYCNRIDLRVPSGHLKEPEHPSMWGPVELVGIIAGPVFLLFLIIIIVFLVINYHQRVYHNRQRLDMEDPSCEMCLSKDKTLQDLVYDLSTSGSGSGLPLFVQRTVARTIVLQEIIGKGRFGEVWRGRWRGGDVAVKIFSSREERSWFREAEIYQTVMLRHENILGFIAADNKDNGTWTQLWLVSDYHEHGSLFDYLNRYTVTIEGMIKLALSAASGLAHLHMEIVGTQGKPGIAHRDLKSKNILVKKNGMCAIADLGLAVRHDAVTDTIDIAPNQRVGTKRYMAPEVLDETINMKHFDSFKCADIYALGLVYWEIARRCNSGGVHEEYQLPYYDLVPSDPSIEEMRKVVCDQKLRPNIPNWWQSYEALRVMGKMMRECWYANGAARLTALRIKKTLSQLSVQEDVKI

Compound: COc1nc2ccc([C@@](O)(c3ccccc3)C3CCN(C(C)=O)CC3)cc2c(Cl)c1Cc1ccc(-n2cccn2)cc1 [JNJ-54119936]
- inhibition [1]: 20%
- inhibition ([2]; Compound concentration 0.3 uM): 4.11%
- inhibition ([2]; Compound concentration 1.0 uM): 2.23%
- inhibition ([2]; Compound concentration 3.0 uM): 12.6%
- inhibition [3]: 8.87%
- inhibition [4]: 39.8%
- inhibition [5]: 3%
- inhibition [6]: 0.46%
- inhibition ([7]; Compound concentration 1.0 uM): 13%
- inhibition ([7]; Compound concentration 10.0 uM): 23%
- inhibition [8]: 11%
- inhibition [9]: -2%
- inhibition [10]: 20.8%
- inhibition [11]: 102%
- inhibition ([12]; Compound concentration 0.3 uM): -0.894%
- inhibition ([12]; Compound concentration 3.0 uM): -6.01%
- inhibition [13]: 13%
- qKD [14]: > 75 µM
- inhibition [15]: 10%
- inhibition [16]: -3.25%
- inhibition [17]: 10%
- inhibition [18]: -6%
- inhibition [19]: 18%
- inhibition [20]: -5.63%
- inhibition [21]: 18.7%
- inhibition [22]: 31.2%
- IC50 [23]: 30 nM (active)
- inhibition [24]: -5%
- inhibition ([25]; Compound concentration 1.0 uM): 21%
- inhibition ([25]; Compound concentration 10.0 uM): 44%
- inhibition [26]: 9.28%
